In brackets after ≈: the same amount, converted by molar mass. Read-outs that look alike come from different tables or passages of the source.
How the values were obtained:
[1] = Solubility in bio-relevant media, water and pH buffers (HPLC of filtrate, XRPD of filter cake); format: physicochemical; settings: for solubility at 0.5 h / solubility at 2 h / solubility at 24 h / solubility / solubility at 4 h / solubility at 8 h: thermodynamic from solid; for solubility at 0.5 h: read-out: Solubility (mg/mL) 0.5 h; for solubility at 2 h: read-out: Solubility (mg/mL) 2 h; for solubility at 24 h: read-out: Solubility (mg/mL) 24 h; for Solubility (mg/mL) 0.5 h / Solubility (mg/mL) 2 h / Solubility (mg/mL) 4 h / Solubility (mg/mL) 8 h: listed as Freebase Form II (Lot #2); for solubility at 4 h: read-out: Solubility (mg/mL) 4 h; for solubility at 8 h: read-out: Solubility (mg/mL) 8 h
Procedure: About 15 mg of freebase Form II was weighed into sample vials, and then 3 mL of each media was added to make suspensions, respectively. […] Duplicated samples were prepared for each media.
(§1) HPLC analysis was performed with an Agilent HPLC 1260 series instrument.

[2] = Purity of filtrates / degradation in bio-relevant media (FeSSIF); format: physicochemical; settings: for HPLC Purity API, Sample 1 / impurity RRT 1.74 / impurity RRT 1.91 / impurity RRT 1.95 / HPLC Purity API, Sample 2: FeSSIF filtrate, 220 nm; for HPLC Purity API, Sample 1 / impurity RRT 1.74 / impurity RRT 1.91 / impurity RRT 1.95: Sample 1
Procedure: About 15 mg of freebase Form II was weighed into sample vials, and then 3 mL of each media was added to make suspensions, respectively. At 0.5, 2 and 24 hours, about 1 mL of each suspension was filtered, the filtrate was analyzed by HPLC and pH, and the filter cake was analyzed by XRPD. Duplicated samples were prepared for each media.
Compared to control pH buffers, the solubility increased to ˜20 μg/mL in FaSSIF and ˜100 μg/mL in FeSSIF, possibly due to the solubilization effect of bile salt. […] Compared to FaSSIF, concentration of bile salt is 5-fold in FeSSIF. The degradation issue in FeSSIF was confirmed with another two batches (Lot #3 and Lot #2) of freebase Form II at 0.5-8 hours, as summarized in Table 12 and Table 13. Several impurities increased rapidly with time.
as §1

- solubility at 0.5 h ([1]; FaSSIF, 37 °C, pH 6.45, fassif, FaSSIF, initial pH 6.45, 37° C., 800 rpm, 0.5 h): 0.016 mg/mL (≈ 38.2 µM)
- solubility at 2 h ([1]; FaSSIF, 37 °C, pH 6.45, fassif, FaSSIF, initial pH 6.45, 37° C., 800 rpm, 2 h): 0.025 mg/mL (≈ 59.7 µM)
- solubility at 24 h ([1]; FaSSIF, 37 °C, pH 6.45, fassif, FaSSIF, initial pH 6.45, 37° C., 800 rpm): 0.028 mg/mL (≈ 66.9 µM)
- solubility ([1]; FaSSIF, 37 °C): ~20 µg/mL (≈ 47.8 µM)
- Solubility (mg/mL) 0.5 h ([1]; FaSSIF, initial pH 6.50, 0.5 h): 0.015 mg/mL (≈ 35.8 µM)
- Solubility (mg/mL) 2 h ([1]; FaSSIF, initial pH 6.50, 2 h): 0.015 mg/mL (≈ 35.8 µM)
- Solubility (mg/mL) 4 h ([1]; FaSSIF, initial pH 6.50, 4 h): 0.017 mg/mL (≈ 40.6 µM)
- Solubility (mg/mL) 8 h ([1]; FaSSIF, initial pH 6.50, 8 h): 0.016 mg/mL (≈ 38.2 µM)
- solubility at 0.5 h ([1]; FaSSIF, pH 6.5, fassif, FaSSIF, initial pH 6.50, 0.5 h): 0.016 mg/mL (≈ 38.2 µM)
- solubility at 2 h ([1]; FaSSIF, pH 6.5, fassif, FaSSIF, initial pH 6.50, 2 h): 0.017 mg/mL (≈ 40.6 µM)
- solubility at 4 h ([1]; FaSSIF, pH 6.5, fassif, FaSSIF, initial pH 6.50, 4 h): 0.021 mg/mL (≈ 50.2 µM)
- solubility at 8 h ([1]; FaSSIF, pH 6.5, fassif, FaSSIF, initial pH 6.50, 8 h): 0.023 mg/mL (≈ 55 µM)
- solubility at 0.5 h ([1]; FeSSIF, 37 °C, pH 4.89, fessif, FeSSIF, initial pH 4.89, 37° C., 800 rpm, 0.5 h): 0.087 mg/mL (≈ 208 µM)
- solubility at 2 h ([1]; FeSSIF, 37 °C, pH 4.89, fessif, FeSSIF, initial pH 4.89, 37° C., 800 rpm, 2 h): 0.101 mg/mL (≈ 241 µM)
- solubility at 24 h ([1]; FeSSIF, 37 °C, pH 4.89, fessif, FeSSIF, initial pH 4.89, 37° C., 800 rpm): 0.12 mg/mL (≈ 287 µM)
- solubility ([1]; FeSSIF, 37 °C, pH 4.98, fessif): ~100 µg/mL (≈ 239 µM)
- solubility at 8 h ([1]; FeSSIF, 37 °C, pH 4.98, fessif, FeSSIF, initial pH 4.98, 8 h): 0.105 mg/mL (≈ 251 µM)
- Solubility (mg/mL) 0.5 h ([1]; FeSSIF, initial pH 4.98, 0.5 h): 0.087 mg/mL (≈ 208 µM)
- Solubility (mg/mL) 2 h ([1]; FeSSIF, initial pH 4.98, 2 h): 0.089 mg/mL (≈ 213 µM)
- Solubility (mg/mL) 4 h ([1]; FeSSIF, initial pH 4.98, 4 h): 0.096 mg/mL (≈ 229 µM)
- Solubility (mg/mL) 8 h ([1]; FeSSIF, initial pH 4.98, 8 h): 0.101 mg/mL (≈ 241 µM)
- solubility at 0.5 h ([1]; FeSSIF, pH 4.98, fessif, FeSSIF, initial pH 4.98, 0.5 h): 0.085 mg/mL (≈ 203 µM)
- solubility at 2 h ([1]; FeSSIF, pH 4.98, fessif, FeSSIF, initial pH 4.98, 2 h): 0.09 mg/mL (≈ 215 µM)
- solubility at 4 h ([1]; FeSSIF, pH 4.98, fessif, FeSSIF, initial pH 4.98, 4 h): 0.097 mg/mL (≈ 232 µM)
- solubility at 0.5 h ([1]; SGF, 37 °C, pH 1.27, simulated gastric fluid, SGF, initial pH 1.27, 37° C., 800 rpm, 0.5 h): > 5 mg/mL
- solubility at 2 h ([1]; SGF, 37 °C, pH 1.27, simulated gastric fluid, SGF, initial pH 1.27, 37° C., 800 rpm, 2 h): > 5 mg/mL
- solubility at 24 h ([1]; SGF, 37 °C, pH 1.27, simulated gastric fluid, SGF, initial pH 1.27, 37° C., 800 rpm): > 5 mg/mL
- solubility ([1]; SGF, 37 °C, simulated gastric fluid): > 5000 µg/mL
- crystalline form during solubility test (XRPD of filter cake) ([1]; all media, up to 24 hours): remained unchanged
- solubility ([1]; pH 5.0 buffer, 37 °C, pH 5, aqueous buffer): ~50 µg/mL (≈ 119 µM)
- solubility at 0.5 h ([1]; pH 5.0 buffer, 37 °C, pH 5, aqueous buffer, pH 5.0 buffer, initial pH 4.94, 37° C., 800 rpm, 0.5 h): 0.045 mg/mL (≈ 108 µM)
- solubility at 2 h ([1]; pH 5.0 buffer, 37 °C, pH 5, aqueous buffer, pH 5.0 buffer, initial pH 4.94, 37° C., 800 rpm, 2 h): 0.05 mg/mL (≈ 119 µM)
- solubility at 24 h ([1]; pH 5.0 buffer, 37 °C, pH 5, aqueous buffer, pH 5.0 buffer, initial pH 4.94, 37° C., 800 rpm): 0.061 mg/mL (≈ 146 µM)
- solubility ([1]; pH 6.5 buffer, 37 °C, pH 6.5, aqueous buffer): ~10 µg/mL (≈ 23.9 µM)
- solubility at 0.5 h ([1]; pH 6.5 buffer, 37 °C, pH 6.5, aqueous buffer, pH 6.5 buffer, initial pH 6.43, 37° C., 800 rpm, 0.5 h): 0.007 mg/mL (≈ 16.7 µM)
- solubility at 2 h ([1]; pH 6.5 buffer, 37 °C, pH 6.5, aqueous buffer, pH 6.5 buffer, initial pH 6.43, 37° C., 800 rpm, 2 h): 0.008 mg/mL (≈ 19.1 µM)
- solubility at 24 h ([1]; pH 6.5 buffer, 37 °C, pH 6.5, aqueous buffer, pH 6.5 buffer, initial pH 6.43, 37° C., 800 rpm): 0.01 mg/mL (≈ 23.9 µM)
- solubility at 0.5 h ([1]; water, 37 °C, pH 4.18, water, Water, initial pH 4.18, 37° C., 800 rpm, 0.5 h): 0.007 mg/mL (≈ 16.7 µM)
- solubility at 2 h ([1]; water, 37 °C, pH 4.18, water, Water, initial pH 4.18, 37° C., 800 rpm, 2 h): 0.008 mg/mL (≈ 19.1 µM)
- solubility at 24 h ([1]; water, 37 °C, pH 4.18, water, Water, initial pH 4.18, 37° C., 800 rpm): 0.01 mg/mL (≈ 23.9 µM)
- solubility ([1]; water, 37 °C): ~10 µg/mL (≈ 23.9 µM)
- purity of filtrates ([2]; FeSSIF): decreased rapidly
- HPLC Purity API, Sample 1 ([2]; 0.5 hr, listed as Lot# 2): 96.72 area %
- impurity RRT 1.74 ([2]; 0.5 hr, listed as Lot# 2): 0.33 area %
- impurity RRT 1.91 ([2]; 0.5 hr, listed as Lot# 2): 1.00 area %
- impurity RRT 1.95 ([2]; 0.5 hr, listed as Lot# 2): 0.32 area %
- HPLC Purity API, Sample 1 ([2]; 0.5 hr, listed as Lot# 3): 92.74 area %
- impurity RRT 1.74 ([2]; 0.5 hr, listed as Lot# 3): 0.27 area %
- impurity RRT 1.91 ([2]; 0.5 hr, listed as Lot# 3): 0.72 area %
- impurity RRT 1.95 ([2]; 0.5 hr, listed as Lot# 3): 0.24 area %
- HPLC Purity API, Sample 2 ([2]; 0.5 hr, listed as Lot# 2): 96.89 area %
- HPLC Purity API, Sample 2 ([2]; 0.5 hr, listed as Lot# 3): 92.57 area %
- HPLC Purity API, Sample 1 ([2]; 2 hr, listed as Lot# 2): 80.67 area %
Structure (SMILES): CNC(=O)c1ccc(N2CCN(Cc3cnc4cc(C5CC5)c(=O)[nH]c4c3)CC2)cn1 [Freebase Form II, 5-(4-((7-cyclopropyl-6-oxo-5,6-dihydro-1,5-naphthyridin-3-yl)methyl)piperazin-1-yl)-N-methylpicolinamide]

Reference: patent US20240174669A1, “CRYSTALLINE FORMS OF A PARP1 INHIBITOR” (XinThera, Inc., priority 2022, published 2024)
